Laboratory results: ChEMBL document CHEMBL1773016, “Discovery and optimization of a series of benzothiazole phosphoinositide 3-kinase (PI3K)/mammalian target of rapamycin (mTOR) dual inhibitors” (J Med Chem, 2011)

Tests used:
[1] = biological target: Serine/threonine-protein kinase mTOR (Homo sapiens, UniProt P42345)
[2] = biological target: Phosphatidylinositol 4,5-bisphosphate 3-kinase catalytic subunit alpha isoform (Homo sapiens, UniProt P42336)
Description: Inhibition of human PI3Kalpha expressed in Sf9 cells

in vitro [3] = conditions: human, liver microsomes
Description: Clearance in human liver microsomes

in vitro [4] = conditions: rat, liver microsomes
Description: Clearance in rat liver microsomes

Chain of Phosphatidylinositol 4,5-bisphosphate 3-kinase catalytic subunit alpha isoform (P42336 whole entry, canonical isoform): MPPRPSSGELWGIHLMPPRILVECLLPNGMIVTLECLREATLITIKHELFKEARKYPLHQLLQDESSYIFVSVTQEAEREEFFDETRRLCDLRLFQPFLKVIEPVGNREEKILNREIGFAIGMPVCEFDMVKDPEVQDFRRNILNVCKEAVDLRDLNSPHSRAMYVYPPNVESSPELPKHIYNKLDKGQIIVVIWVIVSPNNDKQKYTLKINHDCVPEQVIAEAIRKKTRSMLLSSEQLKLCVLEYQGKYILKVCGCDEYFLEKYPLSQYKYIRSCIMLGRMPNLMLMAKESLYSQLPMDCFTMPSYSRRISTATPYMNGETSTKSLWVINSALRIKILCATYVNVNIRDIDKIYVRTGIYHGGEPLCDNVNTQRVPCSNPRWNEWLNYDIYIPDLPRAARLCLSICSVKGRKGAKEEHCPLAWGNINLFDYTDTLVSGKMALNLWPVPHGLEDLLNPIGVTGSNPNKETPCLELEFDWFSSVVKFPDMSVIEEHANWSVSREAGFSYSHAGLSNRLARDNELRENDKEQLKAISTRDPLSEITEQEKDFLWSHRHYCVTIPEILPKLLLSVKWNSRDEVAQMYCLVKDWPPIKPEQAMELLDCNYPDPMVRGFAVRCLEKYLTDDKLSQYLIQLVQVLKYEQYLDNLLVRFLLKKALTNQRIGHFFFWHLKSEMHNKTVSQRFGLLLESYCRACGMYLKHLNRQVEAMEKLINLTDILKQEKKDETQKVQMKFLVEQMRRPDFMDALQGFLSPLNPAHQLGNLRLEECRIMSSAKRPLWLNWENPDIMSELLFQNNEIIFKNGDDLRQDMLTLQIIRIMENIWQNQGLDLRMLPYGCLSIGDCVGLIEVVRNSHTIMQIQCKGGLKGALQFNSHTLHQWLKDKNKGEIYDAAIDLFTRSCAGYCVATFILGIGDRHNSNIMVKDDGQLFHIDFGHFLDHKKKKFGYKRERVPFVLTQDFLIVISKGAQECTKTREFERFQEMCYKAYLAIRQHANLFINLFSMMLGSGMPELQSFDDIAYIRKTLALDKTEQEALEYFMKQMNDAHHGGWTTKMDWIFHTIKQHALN

| IC50 [1] [nM] | Ki [2] [nM] | microsomal CLint (in vitro [3]) [µL/min/mg] | microsomal CLint (in vitro [4]) [µL/min/mg] | Compound |
| --- | --- | --- | --- | --- |
| > 6000 | – | – | – | CC(=O)Nc1nc2ccc(-c3ccnc(Oc4ccccc4)n3)cc2s1 |
| 15 | 9 | – | – | COc1ccc(S(=O)(=O)Nc2cncc(-c3ccc4nc(NC(C)=O)sc4c3)n2)cc1 |
| > 6000 | 128 | – | – | CC(=O)Nc1nc2ccc(-c3ccnc(OCc4ccncc4)n3)cc2s1 |
| 57 | – | – | – | COc1ccc(S(=O)(=O)Nc2nccc(-c3ccc4nc(NC(C)=O)sc4c3)n2)cc1 |
| > 6000 | 46 | – | – | CC(=O)Nc1nc2ccc(-c3ccnc(Sc4ccccc4F)n3)cc2s1 |
| < 1 | < 1 | < 14 | 500 | CC(=O)Nc1nc2ccc(-c3cnc(Cl)c(NS(=O)(=O)c4ccccc4C(F)(F)F)c3)cc2s1 |
| > 6000 | 58 | – | – | CC(=O)Nc1nc2ccc(-c3ccnc(OCc4ccc(C)cc4)n3)cc2s1 |
| > 6000 | 44 | – | – | CC(=O)Nc1nc2ccc(-c3ccnc(Sc4ccc(F)cc4)n3)cc2s1 |
| 285 | 76 | > 399 | > 399 | COc1ccc(S(=O)(=O)N(C)c2nccc(-c3ccc4nc(NC(C)=O)sc4c3)n2)cc1 |
| 1.1 | < 1 | < 14 | 320 | CC(=O)Nc1nc2ccc(-c3cnc(Cl)c(NS(=O)(=O)c4ccccc4F)c3)cc2s1 |
| 913 | – | – | – | CC(=O)Nc1nc2ccc(-c3ccnc(OCCCc4cccnc4)n3)cc2s1 |
| > 6000 | 58 | – | – | COc1ccc(COc2nccc(-c3ccc4nc(NC(C)=O)sc4c3)n2)cc1 |
| 47 | 84 | – | – | CC(=O)Nc1nc2ccc(-c3ccnc(NS(=O)(=O)c4cccc(F)c4)n3)cc2s1 |
| > 6000 | – | – | – | CC(=O)Nc1nc2ccc(-c3ccnc(SCc4ccccc4)n3)cc2s1 |
| > 6000 | 85 | – | – | CC(=O)Nc1nc2ccc(-c3ccnc(NCc4ccccc4)n3)cc2s1 |
| < 1 | < 1 | < 14 | < 14 | CC(=O)Nc1nc2ccc(-c3cnc(Cl)c(NS(=O)(=O)c4ccc(Cl)cc4)c3)cc2s1 |
| > 6000 | – | – | – | CC(=O)Nc1nc2ccc(-c3ccnc(OCc4ccc(F)cc4)n3)cc2s1 |
| > 6000 | 47 | – | – | CC(=O)Nc1nc2ccc(-c3ccnc(OCc4cccc(C)c4)n3)cc2s1 |
| 1.6 | < 1 | < 14 | < 14 | CC(=O)Nc1nc2ccc(-c3cnc(Cl)c(NS(=O)(=O)c4ccc(C(F)(F)F)cc4)c3)cc2s1 |
| 269 | – | 579 | > 399 | CC(=O)Nc1nc2ccc(-c3ccnc(N(C)S(=O)(=O)c4ccc(C)cc4)n3)cc2s1 |
| > 6000 | 605 | – | – | CC(=O)Nc1nc2ccc(-c3ccnc(Cc4ccccc4)n3)cc2s1 |
| > 6000 | – | – | – | CC(=O)Nc1nc2ccc(-c3ccnc(Sc4ccccc4C)n3)cc2s1 |
| 2.3 | 1.1 | < 14 | > 399 | CC(=O)Nc1nc2ccc(-c3cnc(Cl)c(NS(=O)(=O)c4cccc(F)c4)c3)cc2s1 |
| 2.1 | < 1 | 135 | 460 | CC(=O)Nc1nc2ccc(-c3cnc(Cl)c(NS(=O)(=O)c4ccc(C(C)(C)C)cc4)c3)cc2s1 |
| > 6000 | 32 | – | – | CC(=O)Nc1nc2ccc(-c3ccnc(OCCCc4ccccc4)n3)cc2s1 |
| 719 | 826 | – | – | CC(=O)Nc1nc2ccc(-c3ccnc(NS(=O)(=O)c4ccc(F)cc4)n3)cc2s1 |
| < 1 | < 1 | < 14 | > 399 | CC(=O)Nc1nc2ccc(-c3cnc(Cl)c(NS(=O)(=O)c4ccccc4Cl)c3)cc2s1 |
| 1500 | 48 | – | – | COc1ccc(S(=O)(=O)Nc2cccc(-c3ccc4nc(NC(C)=O)sc4c3)c2)cc1 |

| IC50 [1] [nM] | Ki [2] [nM] | microsomal CLint (in vitro [3]) [µL/min/mg] | microsomal CLint (in vitro [4]) [µL/min/mg] | Compound |
| --- | --- | --- | --- | --- |
| 1.6 | 1.4 | – | – | COc1ccc(S(=O)(=O)Nc2cc(-c3ccc4nc(NC(C)=O)sc4c3)cnc2C#N)cc1 |
| > 6000 | 48 | – | – | COc1cccc(Sc2nccc(-c3ccc4nc(NC(C)=O)sc4c3)n2)c1 |
| > 6000 | – | – | – | CC(=O)Nc1nc2ccc(-c3ccnc(OCCCN4CCOCC4)n3)cc2s1 |
| > 6000 | – | – | – | COc1ccccc1Sc1nccc(-c2ccc3nc(NC(C)=O)sc3c2)n1 |
| 45 | 41 | – | – | CC(=O)Nc1nc2ccc(-c3ccnc(NS(=O)(=O)c4ccccc4F)n3)cc2s1 |
| 29 | – | – | – | COc1ccc(S(=O)(=O)Nc2cc(-c3ccc4nc(NC(C)=O)sc4c3)ccn2)cc1 |
| 65 | 82 | – | – | CC(=O)Nc1nc2ccc(-c3ccnc(NS(=O)(=O)c4ccc(C)cc4)n3)cc2s1 |
| > 6000 | – | – | – | CC(=O)Nc1nc2ccc(-c3ccnc(CCc4ccccc4)n3)cc2s1 |
| > 6000 | 31 | – | – | CC(=O)Nc1nc2ccc(-c3ccnc(Sc4cccc(F)c4)n3)cc2s1 |
| > 6000 | – | – | – | CC(=O)Nc1nc2ccc(-c3ccnc(Sc4ccccc4)n3)cc2s1 |
| > 6000 | 3130 | – | – | COc1ccc(C(=O)Nc2nccc(-c3ccc4nc(NC(C)=O)sc4c3)n2)cc1 |
| < 1 | < 1 | 16 | > 399 | CC(=O)Nc1nc2ccc(-c3cnc(Cl)c(NS(=O)(=O)c4cccc(Cl)c4)c3)cc2s1 |
| 2.1 | < 1 | 83 | 610 | CC(=O)Nc1nc2ccc(-c3cnc(Cl)c(NS(=O)(=O)c4cccc(C(C)(C)C)c4)c3)cc2s1 |
| < 1 | < 1 | 17 | 36 | CC(=O)Nc1nc2ccc(-c3cnc(Cl)c(NS(=O)(=O)c4cccc(C(F)(F)F)c4)c3)cc2s1 |
| > 6000 | 53 | – | – | CC(=O)Nc1nc2ccc(-c3ccnc(Sc4cccc(C)c4)n3)cc2s1 |
| > 6000 | 114 | – | – | CC(=O)Nc1nc2ccc(-c3ccnc(OCCCc4ccncc4)n3)cc2s1 |
| > 6000 | – | – | – | CC(=O)Nc1nc2ccc(-c3ccnc(N(C)S(=O)(=O)c4ccccc4F)n3)cc2s1 |
| > 6000 | 105 | – | – | CC(=O)Nc1nc2ccc(-c3ccnc(OCc4ccccc4)n3)cc2s1 |
| > 6000 | 59 | – | – | CC(=O)Nc1nc2ccc(-c3ccnc(Sc4ccc(C)cc4)n3)cc2s1 |
| > 6000 | – | – | – | CC(=O)Nc1nc2ccc(-c3ccnc(OCc4cccc(F)c4)n3)cc2s1 |
| 2.1 | < 1 | 42 | > 399 | COc1ccc(S(=O)(=O)Nc2cc(-c3ccc4nc(NC(C)=O)sc4c3)cnc2Cl)cc1 |
| > 6000 | – | – | – | CC(=O)Nc1nc2ccc(-c3ccnc(NC(C)(C)c4ccccc4)n3)cc2s1 |
| > 6000 | 18 | – | – | COc1cccc(COc2nccc(-c3ccc4nc(NC(C)=O)sc4c3)n2)c1 |
| 11 | 1.6 | – | – | COc1ccc(S(=O)(=O)Nc2cncc(-c3ccc4nc(NC(C)=O)sc4c3)c2)cc1 |
| 262 | 62 | – | – | CCN(c1nccc(-c2ccc3nc(NC(C)=O)sc3c2)n1)S(=O)(=O)c1ccc(OC)cc1 |
| < 1 | – | < 14 | > 399 | CC(=O)Nc1nc2ccc(-c3cnc(Cl)c(NS(=O)(=O)c4ccccc4)c3)cc2s1 |
| 6 | 1.2 | – | – | COc1ccc(S(=O)(=O)Nc2cc(-c3ccc4nc(NC(C)=O)sc4c3)cnc2C)cc1 |

| Compound | IC50 [1] [nM] | Ki [2] [nM] | microsomal CLint (in vitro [3]) [µL/min/mg] | microsomal CLint (in vitro [4]) [µL/min/mg] |
| --- | --- | --- | --- | --- |
| COc1ccc(Sc2nccc(-c3ccc4nc(NC(C)=O)sc4c3)n2)cc1 | 3010 | 18 | – | – |
